Source: article PMC11079024, “Identification of a family of species-selective complex I inhibitors as potential anthelmintics” (Nature Communications, 2024)
Where two headings read alike, the source gives them in different places.

How the values were obtained:
[1] = target: B. taurus (heart) complex I (Bos taurus, UniProt P03887+P17694+P42026); assay: biochemical; format: biochemical; conditions: for IC50: B. taurus heart mitochondria, read-out: B. taurus Complex I IC50; for activity at 0.0001 µM / activity at 0.0005 µM / activity at 0.001 µM / activity at 0.0025 µM / activity at 0.005 µM / activity at 0.013 µM / activity at 0.025 µM / activity at 0.063 µM / activity at 0.125 µM / activity at 0.313 µM / activity at 0.625 µM / activity at 1.5 µM / activity at 3 µM / activity at 15 µM / activity at 37.5 µM / activity at 75 µM: read-out: B. taurus mitochondrial complex I activity; for Log IC50 B. taurus complex I: log10 of IC50 in µM, B. taurus mitochondria
Chain of B. taurus (heart) complex I (P03887 whole entry): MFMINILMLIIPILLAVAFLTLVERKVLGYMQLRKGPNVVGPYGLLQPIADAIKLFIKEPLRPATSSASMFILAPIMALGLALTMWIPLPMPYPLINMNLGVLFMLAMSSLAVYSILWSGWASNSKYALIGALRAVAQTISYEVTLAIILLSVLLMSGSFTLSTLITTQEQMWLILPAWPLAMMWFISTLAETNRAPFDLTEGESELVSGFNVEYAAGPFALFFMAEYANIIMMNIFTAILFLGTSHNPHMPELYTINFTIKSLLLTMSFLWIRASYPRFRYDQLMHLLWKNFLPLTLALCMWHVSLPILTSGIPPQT
Chain of B. taurus (heart) complex I (P17694 34-463): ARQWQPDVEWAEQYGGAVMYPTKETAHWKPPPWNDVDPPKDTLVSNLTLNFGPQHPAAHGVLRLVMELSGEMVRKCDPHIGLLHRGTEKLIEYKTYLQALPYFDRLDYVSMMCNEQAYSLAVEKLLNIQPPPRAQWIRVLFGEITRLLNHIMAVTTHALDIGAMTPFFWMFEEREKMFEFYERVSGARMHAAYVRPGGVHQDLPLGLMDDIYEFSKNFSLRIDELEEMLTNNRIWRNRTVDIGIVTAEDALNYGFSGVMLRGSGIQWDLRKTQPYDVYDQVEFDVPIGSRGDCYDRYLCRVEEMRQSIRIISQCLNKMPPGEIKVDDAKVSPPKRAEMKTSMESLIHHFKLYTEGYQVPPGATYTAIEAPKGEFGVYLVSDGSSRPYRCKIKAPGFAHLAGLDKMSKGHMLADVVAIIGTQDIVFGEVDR
Chain of B. taurus (heart) complex I (P42026 38-216): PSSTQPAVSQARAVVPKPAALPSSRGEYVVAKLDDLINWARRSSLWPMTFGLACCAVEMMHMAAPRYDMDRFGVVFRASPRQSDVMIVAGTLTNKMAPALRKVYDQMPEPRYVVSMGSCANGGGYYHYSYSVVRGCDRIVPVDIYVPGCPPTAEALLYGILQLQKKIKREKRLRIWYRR
Method in brief: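 Complex I activity followed as DCIP reduction (600 nm, 30 s reads, 15 min) with 80 μM NADH and 60 μM decylubiquinone in 25 mM KPi pH 7.5 containing 2 μM antimycin A and 2 mM KCN. Freeze-thawed mouse or bovine heart mitochondria at 0.2 mg/mL; initial-rate percent of solvent control, single-point 100 μM or dose-response.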

L1 wild-type C. elegans = assay: microbe, parasite or virus in culture; conditions: Caenorhabditis elegans, read-out: C. elegans KCN Survival Assay LC50, estimated from fitted dose-response curves; mean of at least two biological replicates
[2] = target: C. elegans (N2) complex I (NADH:ubiquinone oxidoreductase) (Caenorhabditis elegans, UniProt P24887+Q93873+Q94360); assay: biochemical; format: biochemical; conditions: for activity at 0.0001 µM / activity at 0.0005 µM / activity at 0.001 µM / activity at 0.0025 µM / activity at 0.005 µM / activity at 0.013 µM / activity at 0.025 µM / activity at 0.063 µM / activity at 0.125 µM / activity at 0.313 µM / activity at 0.625 µM / activity at 1.5 µM / activity at 3 µM / activity at 15 µM / activity at 37.5 µM / activity at 75 µM: read-out: C. elegans mitochondrial complex I activity; for Log IC50 C. elegans complex I: log10 of IC50 in µM, C. elegans mitochondria
Chain of C. elegans (N2) complex I (NADH:ubiquinone oxidoreductase) (Q94360 17-199): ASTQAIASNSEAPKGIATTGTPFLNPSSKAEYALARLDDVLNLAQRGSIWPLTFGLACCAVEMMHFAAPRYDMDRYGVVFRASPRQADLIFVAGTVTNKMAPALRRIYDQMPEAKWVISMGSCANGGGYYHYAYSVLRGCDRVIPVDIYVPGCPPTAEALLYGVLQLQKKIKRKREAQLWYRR
Chain of C. elegans (N2) complex I (NADH:ubiquinone oxidoreductase) (P24887 whole entry): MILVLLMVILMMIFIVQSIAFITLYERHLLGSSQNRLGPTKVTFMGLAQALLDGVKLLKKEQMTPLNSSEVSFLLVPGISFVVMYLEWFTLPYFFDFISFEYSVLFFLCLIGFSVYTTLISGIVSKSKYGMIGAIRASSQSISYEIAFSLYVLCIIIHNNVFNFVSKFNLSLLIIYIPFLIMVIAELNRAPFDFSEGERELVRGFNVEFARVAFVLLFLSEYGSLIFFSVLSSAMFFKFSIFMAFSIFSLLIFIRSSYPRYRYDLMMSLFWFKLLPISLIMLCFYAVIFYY
Chain of C. elegans (N2) complex I (NADH:ubiquinone oxidoreductase) (Q93873 31-482): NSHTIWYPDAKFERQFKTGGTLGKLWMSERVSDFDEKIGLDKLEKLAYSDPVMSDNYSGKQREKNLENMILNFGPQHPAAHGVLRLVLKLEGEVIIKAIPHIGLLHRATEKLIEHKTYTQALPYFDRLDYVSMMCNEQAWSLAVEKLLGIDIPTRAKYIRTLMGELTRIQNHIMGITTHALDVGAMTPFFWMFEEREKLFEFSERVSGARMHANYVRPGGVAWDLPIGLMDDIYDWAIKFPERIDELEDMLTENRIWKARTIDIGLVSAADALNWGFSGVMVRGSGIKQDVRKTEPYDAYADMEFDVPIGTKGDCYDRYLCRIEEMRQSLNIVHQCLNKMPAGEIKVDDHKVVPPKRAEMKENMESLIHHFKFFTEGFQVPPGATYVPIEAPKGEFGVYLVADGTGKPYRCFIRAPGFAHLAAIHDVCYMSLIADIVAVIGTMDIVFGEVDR
Method in brief: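 Activity expressed as percent of solvent control. Complex I rate came from DCIP reduction at 600 nm (initial linear slope, 15 min) with NADH and decylubiquinone as substrates, plus antimycin A and KCN, in pH 7.5 KPi/BSA buffer. Isolated, thrice freeze-thawed mitochondria used at 0.2 mg/mL.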

[3] = estimated from fitted dose-response curves
[4] = in vitro complex I dose response on C. elegans mitochondria, average of at least two biological replicates, fit in R (DRC), read-out: IC50 C. elegans complex I
[5] = wild-type (N2) mitochondria, read-out: C. elegans Complex I IC50
[6] = wild-type C. elegans mitochondria, estimated from fitted dose-response curves, read-out: C. elegans Complex I IC50

## FC(F)(F)c1cccc(OCCCCn2cnc3ccccc32)c1 [Compound 7925004]
[1]; [3]
  IC50: 13 µM
[1]
  activity at 0.0001 µM: 92.5%
  activity at 0.0005 µM: 92.1%
  activity at 0.001 µM: 90.6%
  activity at 0.0025 µM: 88.9%
  activity at 0.005 µM: 89.8%
  activity at 0.013 µM: 84.7%
  activity at 0.025 µM: 87.1%
  activity at 0.063 µM: 85.1%
  activity at 0.125 µM: 81.8%
  activity at 0.313 µM: 83.3%
  activity at 0.625 µM: 88.4%
  activity at 1.5 µM: 81.4%
  activity at 3 µM: 76.3%
  activity at 15 µM: 35.9%
  activity at 37.5 µM: 9.66%
  activity at 75 µM: 1.95%
  Log IC50 B. taurus complex I: 1.11 µM
L1 wild-type C. elegans
  LC50: 13.9 µM
[2]
  activity at 0.0001 µM: 115%
  activity at 0.0005 µM: 105%
  activity at 0.001 µM: 110%
  activity at 0.0025 µM: 110%
  activity at 0.005 µM: 105%
  activity at 0.013 µM: 103%
  activity at 0.025 µM: 105%
  activity at 0.063 µM: 104%
  activity at 0.125 µM: 98%
  activity at 0.313 µM: 81.9%
  activity at 0.625 µM: 91.2%
  activity at 1.5 µM: 67.6%
  activity at 3 µM: 48.6%
  activity at 15 µM: 22.1%
  activity at 37.5 µM: 13.1%
  activity at 75 µM: 1.4%
  Log IC50 C. elegans complex I: 0.31 µM
[2]; [4]
  IC50: 2.06 µM
[2]; [5]
  IC50: 2.06 µM
[2]; [6]
  IC50: 2.06 µM

## Cc1cccc(OCCn2c(C)nc3ccccc32)c1 [Compound 6285199]
[1]; [3]
  IC50: 4.97 µM
[1]
  activity at 0.0001 µM: 98.3%
  activity at 0.0005 µM: 97.3%
  activity at 0.001 µM: 100%
  activity at 0.0025 µM: 95.3%
  activity at 0.005 µM: 95.1%
  activity at 0.013 µM: 97.1%
  activity at 0.025 µM: 95.3%
  activity at 0.063 µM: 88.5%
  activity at 0.125 µM: 87.7%
  activity at 0.313 µM: 83.8%
  activity at 0.625 µM: 79%
  activity at 1.5 µM: 67.9%
  activity at 3 µM: 54%
  activity at 15 µM: 18.4%
  activity at 37.5 µM: 5.61%
  activity at 75 µM: 1.08%
  Log IC50 B. taurus complex I: 0.70 µM
L1 wild-type C. elegans
  LC50: 14.7 µM
[2]
  activity at 0.0001 µM: 94.3%
  activity at 0.0005 µM: 99.3%
  activity at 0.001 µM: 86.9%
  activity at 0.0025 µM: 85.8%
  activity at 0.005 µM: 87.6%
  activity at 0.013 µM: 90.6%
  activity at 0.025 µM: 92.4%
  activity at 0.063 µM: 78.1%
  activity at 0.125 µM: 81.6%
  activity at 0.313 µM: 54.6%
  activity at 0.625 µM: 53.7%
  activity at 1.5 µM: 35.3%
  activity at 3 µM: 23.4%
  activity at 15 µM: 3.64%
  activity at 37.5 µM: 1.37%
  activity at 75 µM: 1.88%
  Log IC50 C. elegans complex I: -0.0757 µM
[2]; [4]
  IC50: 0.84 µM
[2]; [6]
  IC50: 0.84 µM

## Clc1ccc(Cn2cnc3ccccc32)cc1Cl [Compound 5571325]
[1]
  IC50: 11.5 µM
  activity at 0.0001 µM: 97.2%
  activity at 0.0005 µM: 100%
  activity at 0.001 µM: 100%
  activity at 0.0025 µM: 99.4%
  activity at 0.005 µM: 97.3%
  activity at 0.013 µM: 88.2%
  activity at 0.025 µM: 96.9%
  activity at 0.063 µM: 95.3%
  activity at 0.125 µM: 96%
  activity at 0.313 µM: 92.8%
  activity at 0.625 µM: 96.3%
  activity at 1.5 µM: 89.7%
  activity at 3 µM: 83.9%
  activity at 15 µM: 36%
  activity at 37.5 µM: 5.23%
  activity at 75 µM: 1.54%
  Log IC50 B. taurus complex I: 1.06 µM
L1 wild-type C. elegans
  LC50: 13.1 µM
[2]
  activity at 0.0001 µM: 90.4%
  activity at 0.0005 µM: 92.7%
  activity at 0.001 µM: 95.2%
  activity at 0.0025 µM: 95.4%
  activity at 0.005 µM: 92.8%
  activity at 0.013 µM: 92.4%
  activity at 0.025 µM: 92.1%
  activity at 0.063 µM: 90.9%
  activity at 0.125 µM: 87.7%
  activity at 0.313 µM: 83.6%
  activity at 0.625 µM: 83%
  activity at 1.5 µM: 69.7%
  activity at 3 µM: 57.2%
  activity at 15 µM: 19%
  activity at 37.5 µM: 8.47%
  activity at 75 µM: 7.02%
  Log IC50 C. elegans complex I: 0.64 µM
[2]; [4]
  IC50: 4.38 µM
[2]; [5]
  IC50: 4.38 µM
[2]; wild-type C. elegans mitochondria, read-out: C. elegans Complex I IC50
  IC50: 4.38 µM

## C=CCn1c(-c2ccc(N(C)C)cc2)nc2ccccc21 [Compound 6873298]
[1]; [3]
  IC50: 21 µM
[1]
  Log IC50 B. taurus complex I: 1.32 µM
L1 wild-type C. elegans
  LC50: 5.19 µM
[2]; [4]
  IC50: 13.2 µM
[2]
  Log IC50 C. elegans complex I: 1.12 µM
[2]; [6]
  IC50: 13.2 µM
